Laboratory results published in US20220275534A1, “Peptide Library Production Method” (The University of Tokyo, priority 2018, published 2022).
Positions of bridges follow the written chain, without caps; N, C: chain ends. Non-standard residues stand in square brackets, D forms with d. No end group written: not given here.

Key:
KgpF v 3.1 = test: Prenylation of artificial cyclic peptides with 10 μM KgpF v 3.1 (Example 11; Table 7); type: biochemical, Microcystis aeruginosa; design: key: 5: strong intensity; 4: medium intensity; 3: weak intensity; 2: very weak intensity; 1: no peak; N/A: not observed; details: KgpF v 3.1 10 μM
Sequence of KgpF v 3.1 (as listed by the source): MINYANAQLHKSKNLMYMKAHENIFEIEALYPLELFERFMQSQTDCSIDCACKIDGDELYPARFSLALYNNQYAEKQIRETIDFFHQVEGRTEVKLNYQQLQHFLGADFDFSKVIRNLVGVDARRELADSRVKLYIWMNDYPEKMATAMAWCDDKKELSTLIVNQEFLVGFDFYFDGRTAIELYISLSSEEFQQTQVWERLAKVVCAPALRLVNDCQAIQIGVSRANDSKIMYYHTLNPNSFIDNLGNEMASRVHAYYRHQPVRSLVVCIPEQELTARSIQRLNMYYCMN
Protocol: Reaction of the artificial cyclic peptide shown in Table 7 was made under conditions similar to (Conditions 11) and (Conditions 12) except that v8s/v11.1 was used as FIT system, KgpF v 3.1 was used as a prenylation modification enzyme, and the concentration of the KgpF v 3.1 was set at 10 μM. Here, KgpF v 3.1 is an enzyme having a higher purification degree and more improved specific activity than KgpF used under (Conditions 12).

KgpF = test: Prenylation of translated thioether-closed artificial cyclic peptides with KgpF, MALDI-TOF-MS analysis (Examples 1-9; 37° C., 18 hours); type: biochemical, Microcystis aeruginosa; design: key to DMAPP adduct 0 / DMAPP adduct 1: 0: N/A; 1: Nothing; 2: Very weak intensity; 3: Medium intensity; 4: Strong intensity; details: 2 mM DMAPP; for DMAPP adduct 1: MALDI-TOF-MS peak intensity of singly prenylated peptide; for DMAPP adduct 1 / DMAPP adduct 0: 160 μM KgpF; for DMAPP adduct 0: MALDI-TOF-MS peak intensity of unmodified peptide
Protocol: With regards to each of KgpF and OltF, heterogeneous co-expression of a gene synthesized after optimizing the codon of a gene derived from a producing strain was performed in Escherichia coli, followed by purification to obtain a prenylation enzyme.
The analysis was performed using UltrafleXtreme (Bruker Daltonics) or Autoflex II (Bruker Daltonics) and peptide calibration standard II (Bruker Daltonics).
In short, six kinds in total of peptides were obtained by translation and synthesis under (Conditions 1) of the artificial translation system developed by the present inventors. The peptides thus obtained were then reacted with 14.7 μM KgpF at 37° C. for 18 hours in the system shown in (Conditions 2). “DMAPP” used in (Conditions 2) is dimethylallyl pyrophosphoric acid.
(Conditions 1) • FIT system: v7s/v8.0.3 • 19aa-Met: 0.5 mM • ClAc-D or L-Trp-tRNA^fMetCUA: 90 μM • Reaction: 37° C., 60 min. • Scale: […] scale
(Conditions 2) • Translated mixture amount: 2.5 μL (mixture obtained under (Conditions 1)) • KgpF: 14.7 μM • DMAPP: 2 mM • Total amount: 15.7 μL • Reaction: 37° C., 18 hours
The YG280 sequences having the steric configuration of the N terminal Trp serving as an initiation residue of D-form and those of L-form were synthesized, so that two kinds of peptides were prepared in total. These two kinds of artificial cyclic peptides were obtained by translation and synthesis in the artificial translation system (Conditions 3) developed by the present inventors. The peptides thus obtained were then reacted with 53, 160, and 580 μM KgpF in a system shown in (Conditions 4) at 37° C. for 18 hours.
(Conditions 3) • FIT system: v7s/v8.0.3 • 19aa-Met: 0.5 mM • ClAc-D or L-Trp-tRNA^fMetCUA: 120 μM • Reaction: 37° C., 3 hours • Scale: 2.5 μL scale
(Conditions 4) • Translated mixture amount: 2.5 μL (mixture obtained under (Conditions 3)) • KgpF: 53, 160, 580 μM • DMAPP: 2 mM • Reaction: 37° C., 18 hours
The above three kinds of artificial cyclic peptides were obtained by translation and synthesis in the artificial translation system (Conditions 5) developed by the present inventors. The peptides thus obtained were then reacted with KgpF in the system shown below in (Conditions 6) at 37° C. for 18 hours.
(Conditions 5) • FIT system: v7s/v8.0.3 • 19aa-Met: 0.5 mM • ClAc-D or L-Trp-tRNA^fMetCUA: 90 μM • Reaction: 37° C., 60 min. • Scale: 2.5 μL scale
(Conditions 6) • Translated mixture amount: 2.5 μL (mixture obtained under (Conditions 5)) • KgpF: 160 or 580 μM • DMAPP: 2 mM • Reaction: 37° C., 18 hours
The above six kinds of artificial cyclic peptides were obtained by translation and synthesis in the artificial translation system (Conditions 7) developed by the present inventors. The peptides thus obtained were then reacted with 160 μM KgpF in the system shown in (Conditions 8) at 37° C. for 18 hours.
(Conditions 7) • FIT system: v7s/v9.1 • 19aa-Met: 0.5 mM • ClAc-D-Tyr-tRNA^fMetCUA: 90 μM • Reaction: 37° C., 60 min. • Scale: 2.5 μL scale
(Conditions 8) • Translated mixture amount: 2.5 μL (mixture obtained under (Conditions 7)) • KgpF: 160 μM • DMAPP: 2 mM • Reaction: 37° C., 18 hours
The above three kinds of artificial cyclic peptides were obtained by translation and synthesis in the artificial translation system (Conditions 9) developed by the present inventors. The peptides thus obtained were then reacted with 160 μM KgpF in the system shown in (Conditions 10) at 37° C. for 18 hours.
(Conditions 9) • FIT system: v7s/v9.1 • 19aa-Met: 0.5 mM • ClAc-D-Tyr-tRNA^fMetCUA: 90 μM • Reaction: 37° C., 60 min. • Scale: 2.5 μL scale
(Conditions 10) • Translated mixture amount: 2.5 μL (mixture obtained under (Conditions 9)) • KgpF: 160 μM • DMAPP: 2 mM • Reaction: 37° C., 18 hours
The above artificial cyclic peptides were obtained by translation and synthesis in the artificial translation system (Conditions 11) developed by the present inventors. […]

OltF = test: Prenylation of Trp present at N terminal with OltF (Example 23); type: biochemical, Planktothrix; details: 100 μM OltF, 2.1 mM DMAPP, 37° C., 18 hours (FIG. 19, FIG. 20)
Sequence of OltF (as listed by the source): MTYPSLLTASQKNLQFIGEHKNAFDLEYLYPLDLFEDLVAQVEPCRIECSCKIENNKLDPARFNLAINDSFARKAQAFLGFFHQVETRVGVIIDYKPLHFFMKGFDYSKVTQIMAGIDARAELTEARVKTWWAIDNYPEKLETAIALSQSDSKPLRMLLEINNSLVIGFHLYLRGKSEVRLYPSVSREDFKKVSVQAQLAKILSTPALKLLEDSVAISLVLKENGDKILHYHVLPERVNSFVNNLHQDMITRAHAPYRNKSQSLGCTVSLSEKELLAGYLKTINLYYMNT
Protocol: The cyclic peptide shown below was obtained by translation and synthesis under the following (Conditions 32) in the artificial translation system developed by the present inventors. The translated mixture thus obtained was then reacted (prenylated) under the following (Conditions 33).
(Conditions 32) • 19aa-mix (19 kinds of proteinogenic amino acids other than M)]: 0.5 mM • ClAc-D-Tyr-tRNA^fMetCUA: 50 μM • Reaction: 37° C. and 30 minutes in an artificial translation-system solution. • Scale: 2.5 μL scale
(Conditions 33) • Translated mixture amount: 2.5 μL (mixture obtained under (Conditions 32)) • OltF: 100 μM • DMAPP: 2.1 mM • Reaction: 37° C., 18 hours • Scale: 5.7 μL scale

YG292-PaktiL5: cyclic peptide obtained by translation and synthesis ({CH2CO}-[dY]IRRPWVPIIYLGC; thioether N-14 (inferred))
Peak intensity, The number of prenyl groups added 0 (KgpF v 3.1): 1 | Peak intensity, The number of prenyl groups added 1 (KgpF v 3.1): 5 | prenylation modification with KgpF (MALDI-TOF-MS) (KgpF; Examples 4-7: 160 μM KgpF): modified with a prenyl group

AY015: cyclic peptide containing a Trp at N terminal position, SEQ ID NO: 372 (WSNFRIARYSNSSC; also: cyclic)
prenylation modification with OltF (MALDI-TOF-MS) (OltF): Trp at the N terminal position was prenylated

AY017: cyclic peptide containing a Trp at N terminal position, SEQ ID NO: 374 (WCDVSGRAGYFPC; also: cyclic)
prenylation modification with OltF (MALDI-TOF-MS) (OltF): Trp at the N terminal position was prenylated

YG297-aMD4: cyclic peptide obtained by translation and synthesis ({CH2CO}-[dY]RQFNRRTHEVWNLDC; thioether N-16 (inferred))
Peak intensity, The number of prenyl groups added 0 (KgpF v 3.1): 1 | Peak intensity, The number of prenyl groups added 1 (KgpF v 3.1): 5 | prenylation modification with KgpF (MALDI-TOF-MS) (KgpF; Examples 4-7: 160 μM KgpF): modified with a prenyl group

AY018: cyclic peptide containing a Trp at N terminal position, SEQ ID NO: 375 (WNNRERGSDDDAGGPC; also: cyclic)
prenylation modification with OltF (MALDI-TOF-MS) (OltF): Trp at the N terminal position was prenylated

YG298: YG280 mutant having only the N-terminal Trp residue remained ({CH2CO}-[dW]LNGDNNYSTPC; thioether N-12)
prenylation modification with KgpF (MALDI-TOF-MS) (KgpF; Example 3: 160 or 580 μM KgpF): no modified product was found

YG304-YG280(FFWFF): artificial cyclic peptide, template YLNGDFFWFFPC (SEQ ID NO 246) ({CH2CO}-[dY]LNGDFFWFFPC; thioether N-12)
DMAPP adduct 1 (KgpF): 3 | DMAPP adduct 0 (KgpF): 4

YG289-S2iD7: cyclic peptide obtained by translation and synthesis ({CH2CO}-[dY]HDYRIWRYHTYPC; thioether N-14 (inferred))
Peak intensity, The number of prenyl groups added 0 (KgpF v 3.1): 1 | Peak intensity, The number of prenyl groups added 1 (KgpF v 3.1): 5 | prenylation modification with KgpF (MALDI-TOF-MS) (KgpF; Examples 4-7: 160 μM KgpF): modified with a prenyl group

AY020: cyclic peptide containing a Trp at N terminal position, SEQ ID NO: 377 (WSNRERGSDDDAGGPC; also: cyclic)
prenylation modification with OltF (MALDI-TOF-MS) (OltF): Trp at the N terminal position was prenylated

AY019: cyclic peptide containing a Trp at N terminal position, SEQ ID NO: 376 (WSNVSGRAGYFPC; also: cyclic)
prenylation modification with OltF (MALDI-TOF-MS) (OltF): Trp at the N terminal position was prenylated

AY016: cyclic peptide containing a Trp at N terminal position, SEQ ID NO: 373 (WHDYRIARYHTYPC; also: cyclic)
prenylation modification with OltF (MALDI-TOF-MS) (OltF): Trp at the N terminal position was prenylated

YG300-CM11(RFG > NWS): artificial cyclic peptide, template YCDVSGNWSYPC (SEQ ID NO 239)
DMAPP adduct 1 (KgpF): 4 | DMAPP adduct 0 (KgpF): 2

YG290-CM11: peptide having no Trp residue in the peptide chain (random region) (Ac-[dW]CDVSGRFGYFPC; thioether (positions not given here); also: thioether ring to Cys2 or Cys13)
prenylation modification with KgpF (MALDI-TOF-MS) (KgpF; Example 3: 160 or 580 μM KgpF): no modified product was found
